Test results published in US8258125B2, “HDL-boosting combination therapy complexes” (priority 2008, dated 2012).
“Also recorded” adds a separate entry of the source. Where two headings read alike, the source gives them in different places.

Assays:
Golden Syrian hamster = assay: Evaluation of antilipidemic property in hamster animal model (2-week daily oral gavage); type: in vivo; settings: for raising HDL-C (in words): monotherapy; for LDL-C reduced by: 8-160 mg range; for reducing LDL-C by: repeat experiment, 5-20 mg dose range
Excerpt: Evaluation of antilipidemic property in animal. Golden Syrian hamster, 8-wk old (85-100 g) (Bio®F1B, Bio Breeders, Inc., Watertown, Mass.) was the animal model chosen for this study because of its similarities with humans in lipoprotein metabolism and atherosclerosis Moreover, the hamster has plasma cholesteryl ester transfer protein (CETP) similar to humans. Dietary fat saturation affects apolipoprotein gene expression and high-density lipoprotein size distribution in golden Syrian hamsters. The animals housed four per cage were fed […] Supreme Fortified Hamster diet ([…] Products, Inc. Chilton, Wis.), with one part ratio of Heath High Energy suet (Heath Mfg., Cooperville, Mich.); water ad libitum. The animals were fed this diet for 1 week, and then given the drug treatment for a 2-week duration. Drugs were administered by daily oral gavage using 4:6 PEG/Cremaphore suspension vehicle for the water-insoluble drugs (e.g., atorvastatin, lovastatin, simvastatin, and the fibrates); the water-soluble drugs (dihydroxy-acid salts, pravastatin) were dissolved in water. Equivalent doses, based on a 70 kg person, were administered in the hamster. […] Thus, the calculated final dose for a 100-gm hamster is 0.143 mg as well ([…] X a factor of “10”), formulated in a 0.25 ml solution for oral gavage administration. […] Body weights were recorded prior to drug administration and every other day during the test duration. At termination, blood was collected from anesthetized hamsters and the serum is separated by centrifugation. Total serum cholesterol was assayed using the Hitachi Diagnostics enzymatic kit for the determination of total cholesterol, LDL cholesterol, HDL cholesterol, and triglyceride (Analysis performed by: Lipid Analysis, Inc., Springfield, Ill.).

[1] = system: Syrian Golden hamsters (F1B strain); assay: Lipid profile in Syrian Golden hamsters on hypercholesterolemic diet, combo drugs vs Crestor; type: in vivo; settings: for effective doses found in this study: in combination, mg/70 kg man
Method: Crestor is a new synthetic statin and considered “superstatin” because of its effectiveness at low doses. In clinical studies, Crestor is now found to be the new gold standard among the statins: a 5 mg Crestor dose is equivalent to 20 mg Lipitor, 40 mg Zocor, 80 mg Mevacor or Pravachol. Thus, the drug combination of Compound I and Compound II was compared with Crestor. The animal model was Syrian Golden hamsters (F1B strain, BioBreeders, Fitchburg Mass.). The animals approximately 8-10 weeks of age were fed a non-purified chow-based hypercholesterolemic diet (HCD) containing 10% coconut oil and 0.1% cholesterol by weight for 2 weeks prior to initiation of the experimental treatments, and remain on this diet for the remainder of the study. Compounds I and II were administered by oral gavage (0.2 mL), once a day for 14 days. At day 14, blood samples were obtained after an overnight fast.

Water solubility = type: physicochemical
[2] = background description; cited from earlier work
[3] = system: Rattus norvegicus, outbred Sprague Dawley; settings: combination, rat 14 days, mg/70 kg man
Method: Age range at initiation of study was 8-14. […] Quarantine/acclimation was one week. Animals were randomized to groups based on weight. Number per cage was 2-3. Environmental conditions: Conventional microisolator caging. Room temperature was maintained between 19 and 23° C. Relative humidify was maintained at 55-80%. The light/dark cycle was maintained on a 12 hour cycle. Animals were exposed to the test substance daily for 14 days (2 weeks); and the doses were administered by gavage.
Gross necropsy was performed in the animals in the study. […] Collected tissues were placed in formalin overnight and then sectioned and cassetted the following day.
Blood samples were collected by cardiac puncture, 24 hours after the last treatment, as part of the necropsy protocol. Parameters examined include hematocrit (HCT), hemoglobin (Hgb), total erythrocyte count (RBC), total white cell count (WBC), differential count, and platelet estimate; calculated mean corpuscular volume (MCV), mean corpuscular hemoglobin (MCH), and mean corpuscular hemoglobin concentration (MCHC).
Also, at 16-18 hours after the last treatment, animals were placed in metabolic cages and urine was collected (just prior to necropsy). The urine samples were tested for presence of myoglobin.
Clinical Chemistry. Blood samples were collected by cardiac puncture, 24 hours after the last treatment, as part of the necropsy protocol. […]

[4] = Equivalent Dose 8 mg (per 70 kg man), oral gavage 2 weeks, serum
[5] = Equivalent Dose 160 mg (per 70 kg man), oral gavage 2 weeks, serum
[6] = repeat comparison, Equivalent Dose 5.0 mg
[7] = repeat comparison, Equivalent Dose 10.0 mg
[8] = repeat comparison, Equivalent Dose 20.0 mg
[9] = compared with the Compound I and II combination

SMILES | % Decrease On: HDL-C (Golden Syrian hamster; Equivalent Dose 8 mg) [%] | % Decrease On: LDL-C (Golden Syrian hamster; Equivalent Dose 8 mg) [%] | % Decrease On: Triglyceride (Golden Syrian hamster; Equivalent Dose 8 mg) [%] | % Decrease On: Total Cholesterol (Golden Syrian hamster; [4]) [%] | % Decrease On: HDL-C (Golden Syrian hamster; Equivalent Dose 160 mg) [%] | % Decrease On: LDL-C (Golden Syrian hamster; Equivalent Dose 160 mg) [%] | % Decrease On: Triglyceride (Golden Syrian hamster; Equivalent Dose 160 mg) [%] | % Decrease On: Total Cholesterol (Golden Syrian hamster; [5]) [%] | raising HDL-C (in words) (Golden Syrian hamster) | also measured
CC[C@H](C)C(=O)O[C@H]1C[C@H](O)C=C2C=C[C@H](C)[C@H](CC[C@@H](O)C[C@@H](O)CC(=O)O)[C@H]21 [Pravachol, Pravastatin] | 20.4 | 29.9 | 18.8 | 22.4 | 17.3 | 33.3 | 25.9 | 23.0 | did not show any increase in HDL-C | –
CCC(C)(C)C(=O)O[C@H]1C[C@@H](C)C=C2C=C[C@H](C)[C@H](CC[C@@H]3C[C@@H](O)CC(=O)O3)[C@H]21 [Zocor, Simvastatin] | 12.6 | 5.4 | 23.4 | 9.5 | 30.7 | 54.4 | 43.0 | 40.7 | – | –
CC[C@H](C)C(=O)O[C@H]1C[C@@H](C)C=C2C=C[C@H](C)[C@H](CC[C@@H](O)C[C@@H](O)CC(=O)[O-])[C@H]21.[Na+] [Compound I] | 25.2 | 41.4 | 28.6 | 30.3 | 32.2 | 29.2 | 33.7 | 40.7 | not effective in raising HDL-C | LDL-C reduced by (Golden Syrian hamster): 41.4-59.2%; effective at a dose as low as (Golden Syrian hamster; equivalent dose, antilipidemic activity): 5 mg; % Decrease On: HDL-C (Golden Syrian hamster; [6]): 5.6%; % Decrease On: LDL-C (Golden Syrian hamster; [6]): 14.7%; % Decrease On: Total Cholesterol (Golden Syrian hamster; [6]): 14.8%; % Decrease On: Triglyceride (Golden Syrian hamster; [6]): 4.5%; % Decrease On: HDL-C (Golden Syrian hamster; [7]): 12.4%; % Decrease On: LDL-C (Golden Syrian hamster; [7]): 23.7%; % Decrease On: Total Cholesterol (Golden Syrian hamster; [7]): 12.6%; % Decrease On: Triglyceride (Golden Syrian hamster; [7]): 6.8%; % Decrease On: HDL-C (Golden Syrian hamster; [8]): 20.7%; % Decrease On: LDL-C (Golden Syrian hamster; [8]): 22.4%; % Decrease On: Total Cholesterol (Golden Syrian hamster; [8]): 20.9%; % Decrease On: Triglyceride (Golden Syrian hamster; [8]): 23.6%; reducing LDL-C by (Golden Syrian hamster): 22.4-23.7%; effective doses found in this study [1]: 1 to 3 mg
CC(C)c1c(C(=O)Nc2ccccc2)c(-c2ccccc2)c(-c2ccc(F)cc2)n1CC[C@@H](O)C[C@@H](O)CC(=O)O [Lipitor, Atorvastatin] | 33.3 | 28.5 | 35.8 | 28.6 | 30.7 | 54.4 | 53.0 | 43.0 | not effective in raising HDL-C; also recorded: did not show any increase in HDL-C | LDL-C reduced by (Golden Syrian hamster): 28.5-54.4%; % Decrease On: HDL-C (Golden Syrian hamster; [7]): 20.7%; % Decrease On: LDL-C (Golden Syrian hamster; [7]): 17.9%; % Decrease On: Total Cholesterol (Golden Syrian hamster; [7]): 18.2%; % Decrease On: Triglyceride (Golden Syrian hamster; [7]): 5.0%; % Decrease On: HDL-C (Golden Syrian hamster; [8]): 15.9%; % Decrease On: LDL-C (Golden Syrian hamster; [8]): 8.9%; % Decrease On: Total Cholesterol (Golden Syrian hamster; [8]): 12.3%; % Decrease On: Triglyceride (Golden Syrian hamster; [8]): 4.8%; reducing LDL-C by (Golden Syrian hamster): 8.9-17.9%
O=C(O)c1cccnc1 [niacin, 3-pyridine carboxylic acid] | – | – | – | – | – | – | – | – | – | solubility in water (Water solubility): not soluble in water
CC[C@H](C)C(=O)O[C@H]1C[C@@H](C)C=C2C=C[C@H](C)[C@H](CC[C@@H]3C[C@@H](O)CC(=O)O3)[C@H]21 [Mevacor, Lovastatin] | 20.4 | 22.4 | 21.8 | 19.4 | 26.7 | 54.4 | 34.4 | 36.6 | did not show any increase in HDL-C | solubility in water (Water solubility): not water-soluble; solubility in water [2]: insoluble in water
CC(C)c1nc(N(C)S(C)(=O)=O)nc(-c2ccc(F)cc2)c1/C=C/[C@@H](O)C[C@@H](O)CC(=O)O [Crestor] | – | – | – | – | – | – | – | – | – | HDL level (in words) [1, 9]: did not boost HDL; controlling cholesterol and LDL (in words) [1, 9]: less effective in controlling cholesterol and LDL
CC(C)(Oc1ccc(CCNC(=O)c2ccc(Cl)cc2)cc1)C(=O)[O-].[Na+] [Compound III] | – | – | – | – | – | – | – | – | – | maximum tolerated dose (MTD) [3]: 10,000 mg; effective doses found in this study [1]: 30 to 40 mg
